US5705687A, “Neurotropic drug and method for preparation of same” (priority 1993, dated 1998)
Counter-ions that a name gives are not always drawn.

Tested on: mice
Assay: Hypoxic (hypercapnic) normobaric hypoxia, lifespan
Format: in vivo
Details: for Average lifespan: control 411 ± 11.9, P < 0.001; for Lifespan, % effect: control = 100
Description: The antihypoxic properties of the new compounds were tested in the models of hypoxic normobaric, hemic and histotoxic hypoxia. The hypoxic (hypercapnic) normobaric hypoxia was induced by placing the mice in hermetically sealed transparent boxes, subdivided into compartments, 80 cm^3 each. The animals were observed until all respiratory movements ceased. The hemic hypoxia was induced by the intraperitoneal administration of sodium nitrite in a dose of 400 mg/kg. The hystotoxic hypoxia was induced by the intraperitoneal administration of sodium nitroprussiate, in a dose of a 20 mg/kg dosage.

CC(C)(CO)C(=O)C(=O)NCCCC(=O)O [KPA-Ca, calcium salt of ketopantoyl aminobutyrate]
Average lifespan (10 mg/kg): 558 ± 21.5 s | Lifespan, % effect (10 mg/kg): 135.8% | Average lifespan (25 mg/kg): 570 ± 17.3 s | Lifespan, % effect (25 mg/kg): 138.7% | Average lifespan (50 mg/kg): 588 ± 22.4 s | Lifespan, % effect (50 mg/kg): 143.1% | Average lifespan (100 mg/kg): 600 ± 30.7 s | Lifespan, % effect (100 mg/kg): 146% | extension of lifespan compared to control group (10 to 100 mg/kg): 35.8-46%
